# Measured values: paper PMC5218480 (PLoS ONE, 2017)
# Tested on: MV-4-11 cells
# Assay: Gene expression microarray analysis (Affymetrix PrimeView) and GSEA
# Type: cell-based, human
# Design: RFU PODN (11730768_x_at) / Fold change /veh PODN (11730768_x_at) / RFU LINC00158 (11744669_a_at) / Fold change /veh LINC00158 (11744669_a_at) / RFU DUSP10 (11751237_a_at) / Fold change /veh DUSP10 (11751237_a_at) / RFU ID3 (11757404_x_at) / Fold change /veh ID3 (11757404_x_at) / RFU PLEKHG5 (11737974_s_at) / Fold change /veh PLEKHG5 (11737974_s_at) / RFU LRRC4B (11730491_at) / Fold change /veh LRRC4B (11730491_at) / RFU GIMAP4 (11747438_a_at) / Fold change /veh GIMAP4 (11747438_a_at) / RFU KRT8 (11758183_x_at) / Fold change /veh KRT8 (11758183_x_at) / RFU CNN1 (11734310_a_at) / Fold change /veh CNN1 (11734310_a_at) / RFU VPS37D (11726825_at) / Fold change /veh VPS37D (11726825_at) / RFU C10orf10 (11716522_x_at) / Fold change /veh C10orf10 (11716522_x_at) / RFU KIR2DL2 /// KIR2DL4 /// KIR2DL5A /// KIR2DL5B /// KIR2DS1 /// KIR2DS2 /// KIR2DS3 /// KIR2DS4 /// KIR3DL3 /// KIR3DL3 /// KIR3DS1 (11738374_at) / Fold change /veh KIR2DL2 /// KIR2DL4 /// KIR2DL5A /// KIR2DL5B /// KIR2DS1 /// KIR2DS2 /// KIR2DS3 /// KIR2DS4 /// KIR3DL3 /// KIR3DL3 /// KIR3DS1 (11738374_at) / RFU C1QL1 (11718748_at) / Fold change /veh C1QL1 (11718748_at) / RFU TMPRSS4 (11747572_a_at) / Fold change /veh TMPRSS4 (11747572_a_at) / RFU HAMP (11756126_x_at) / Fold change /veh HAMP (11756126_x_at) / RFU RNFT2 (11725882_a_at) / Fold change /veh RNFT2 (11725882_a_at) / RFU NR4A2 (11747474_a_at) / Fold change /veh NR4A2 (11747474_a_at) / RFU ABCC12 (11746883_a_at) / Fold change /veh ABCC12 (11746883_a_at) / RFU TMEM136 (11760407_x_at) / Fold change /veh TMEM136 (11760407_x_at) / RFU CLDN22 /// WWC2 (11732394_at) / Fold change /veh CLDN22 /// WWC2 (11732394_at) / RFU HLA-DPB1 (11760878_x_at) / Fold change /veh HLA-DPB1 (11760878_x_at) / RFU SPINT1 (11716480_a_at) / Fold change /veh SPINT1 (11716480_a_at) / RFU GAP43 (11754022_s_at) / Fold change /veh GAP43 (11754022_s_at) / RFU A4GNT (11735810_at) / Fold change /veh A4GNT (11735810_at) / RFU PRB3 (11715151_x_at) / Fold change /veh PRB3 (11715151_x_at) / RFU TUBB4B (11761932_at) / Fold change /veh TUBB4B (11761932_at) / RFU CAPN14 (11732068_a_at) / Fold change /veh CAPN14 (11732068_a_at) / RFU TMCC2 (11721928_a_at) / Fold change /veh TMCC2 (11721928_a_at) / RFU IRGQ (11745062_a_at) / Fold change /veh IRGQ (11745062_a_at) / RFU FAM174B (11720279_a_at) / Fold change /veh FAM174B (11720279_a_at) / RFU TMPRSS4 (11748680_a_at) / Fold change /veh TMPRSS4 (11748680_a_at) / RFU FAM212B (11763350_a_at) / Fold change /veh FAM212B (11763350_a_at) / RFU PLEKHG5 (11743358_a_at) / Fold change /veh PLEKHG5 (11743358_a_at) / RFU ZSCAN30 (11745921_a_at) / Fold change /veh ZSCAN30 (11745921_a_at) / RFU CMKLR1 (11741424_a_at) / Fold change /veh CMKLR1 (11741424_a_at) / RFU LOC101060620 /// MAPK8IP1 (11723275_at) / Fold change /veh LOC101060620 /// MAPK8IP1 (11723275_at) / RFU SPTSSB (11747773_x_at) / Fold change /veh SPTSSB (11747773_x_at) / RFU PRSS12 (11739890_at) / Fold change /veh PRSS12 (11739890_at) / RFU BIN1 (11741810_x_at) / Fold change /veh BIN1 (11741810_x_at) / RFU WNT11 (11732464_a_at) / Fold change /veh WNT11 (11732464_a_at) / RFU C10orf10 (11716521_a_at) / Fold change /veh C10orf10 (11716521_a_at) / RFU C5orf56 (11738089_at) / Fold change /veh C5orf56 (11738089_at) / RFU CYB561 (11721691_x_at) / Fold change /veh CYB561 (11721691_x_at) / RFU ANKRD19P (11752326_a_at) / Fold change /veh ANKRD19P (11752326_a_at) / RFU OR2T12 /// OR2T33 /// OR2T8 (11738714_s_at) / Fold change /veh OR2T12 /// OR2T33 /// OR2T8 (11738714_s_at) / RFU VCAN (11748164_a_at) / Fold change /veh VCAN (11748164_a_at) / RFU JSRP1 (11732532_at) / Fold change /veh JSRP1 (11732532_at) / RFU KRTAP10-11 (11738290_x_at) / Fold change /veh KRTAP10-11 (11738290_x_at) / RFU MYO3A (11730013_a_at) / Fold change /veh MYO3A (11730013_a_at) / RFU EBF3 (11725865_a_at) / Fold change /veh EBF3 (11725865_a_at) / RFU CAMK2N1 (11719241_x_at) / Fold change /veh CAMK2N1 (11719241_x_at) / RFU C5orf56 (11738088_a_at) / Fold change /veh C5orf56 (11738088_a_at) / RFU OLFML3 (11715873_a_at) / Fold change /veh OLFML3 (11715873_a_at) / RFU LOC100653217 /// NTM (11731650_a_at) / Fold change /veh LOC100653217 /// NTM (11731650_a_at) / RFU MAPK11 (11762145_a_at) / Fold change /veh MAPK11 (11762145_a_at) / RFU FIZ1 (11724087_x_at) / Fold change /veh FIZ1 (11724087_x_at) / RFU OASL (11726364_x_at) / Fold change /veh OASL (11726364_x_at) / RFU SOX15 (11748057_x_at) / Fold change /veh SOX15 (11748057_x_at) / RFU CD79A (11719716_a_at) / Fold change /veh CD79A (11719716_a_at) / RFU HIST1H1D (11736915_at) / Fold change /veh HIST1H1D (11736915_at) / RFU CASKIN2 (11723855_a_at) / Fold change /veh CASKIN2 (11723855_a_at) / RFU LOC730098 (11760151_x_at) / Fold change /veh LOC730098 (11760151_x_at) / RFU OR4N2 (11742367_at) / Fold change /veh OR4N2 (11742367_at) / RFU PRRT2 (11749266_a_at) / Fold change /veh PRRT2 (11749266_a_at) / RFU SNX32 (11753110_a_at) / Fold change /veh SNX32 (11753110_a_at) / RFU CDHR5 (11726645_a_at) / Fold change /veh CDHR5 (11726645_a_at) / RFU RCAN1 (11760418_a_at) / Fold change /veh RCAN1 (11760418_a_at) / RFU FAM167A (11723789_a_at) / Fold change /veh FAM167A (11723789_a_at) / RFU FAM26E (11764081_at) / Fold change /veh FAM26E (11764081_at) / RFU ISYNA1 (11749810_s_at) / Fold change /veh ISYNA1 (11749810_s_at) / RFU ACY1 (11761880_at) / Fold change /veh ACY1 (11761880_at) / RFU 11764098_at / Fold change /veh 11764098_at / RFU SAMD14 (11745864_x_at) / Fold change /veh SAMD14 (11745864_x_at) / RFU NPB (11741838_a_at) / Fold change /veh NPB (11741838_a_at) / RFU TMPRSS6 (11731388_a_at) / Fold change /veh TMPRSS6 (11731388_a_at) / RFU KRTAP10-2 (11738614_at) / Fold change /veh KRTAP10-2 (11738614_at) / RFU ARHGAP8 /// PRR5-ARHGAP8 (11727945_x_at) / Fold change /veh ARHGAP8 /// PRR5-ARHGAP8 (11727945_x_at) / RFU KRTAP5-7 /// NADSYN1 (11734609_at) / Fold change /veh KRTAP5-7 /// NADSYN1 (11734609_at) / RFU RASL12 (11751679_a_at) / Fold change /veh RASL12 (11751679_a_at) / RFU CDKN2B (11736163_a_at) / Fold change /veh CDKN2B (11736163_a_at) / RFU PRF1 (11729649_at) / Fold change /veh PRF1 (11729649_at) / RFU, ZNF638 /// ZNF638-IT1 / Fold change vs veh, ZNF638 /// ZNF638-IT1 / RFU, PANK3 / Fold change vs veh, PANK3 / RFU, SH3YL1 / Fold change vs veh, SH3YL1 / RFU, ZEB2 / Fold change vs veh, ZEB2 / RFU, NRIP1 / Fold change vs veh, NRIP1 / RFU, PTTG1IP / Fold change vs veh, PTTG1IP / RFU, CAPN2 / Fold change vs veh, CAPN2 / RFU, MED14 / Fold change vs veh, MED14 / RFU, SNORA58 / Fold change vs veh, SNORA58 / RFU, C1orf63 / Fold change vs veh, C1orf63 / RFU, LRRFIP1 / Fold change vs veh, LRRFIP1 / RFU, NDUFAF7 / Fold change vs veh, NDUFAF7 / RFU, SLC12A2 / Fold change vs veh, SLC12A2 / RFU, IBTK / Fold change vs veh, IBTK / RFU, ESF1 / Fold change vs veh, ESF1 / Fold change vs veh, TMEM50B / RFU, TAOK1 / Fold change vs veh, TAOK1 / RFU, ACBD3 / Fold change vs veh, ACBD3 / RFU, TMA16 / Fold change vs veh, TMA16 / RFU, RWDD3 / Fold change vs veh, RWDD3 / RFU, BCAT1 / Fold change vs veh, BCAT1 / RFU, EDEM3 / Fold change vs veh, EDEM3 / RFU, TMEM33 / Fold change vs veh, TMEM33 / RFU, WDR75 / Fold change vs veh, WDR75 / RFU, AHCTF1 / Fold change vs veh, AHCTF1 / RFU, TFRC / Fold change vs veh, TFRC / RFU, ZDHHC17 / Fold change vs veh, ZDHHC17 / RFU, NOM1 / Fold change vs veh, NOM1 / RFU, ARL8B / Fold change vs veh, ARL8B / RFU, ZBTB11 / Fold change vs veh, ZBTB11 / RFU, TAMM41 / Fold change vs veh, TAMM41 / RFU, KIAA1704 /// LOC100996395 / Fold change vs veh, KIAA1704 /// LOC100996395 / RFU, ING1 / Fold change vs veh, ING1 / RFU, TRMT61B / Fold change vs veh, TRMT61B / RFU, FUBP3 / Fold change vs veh, FUBP3 / RFU, TP53 / Fold change vs veh, TP53 / RFU, TNKS2 / Fold change vs veh, TNKS2 / RFU, ZFP14 / Fold change vs veh, ZFP14 / RFU, ACTR2 / Fold change vs veh, ACTR2 / RFU, PPP3R1 / Fold change vs veh, PPP3R1 / RFU, PIK3R1 / Fold change vs veh, PIK3R1 / RFU, HNRNPA1 / Fold change vs veh, HNRNPA1 / RFU, RNF170 / Fold change vs veh, RNF170 / RFU, ZNF28 / Fold change vs veh, ZNF28 / RFU, RNGTT / Fold change vs veh, RNGTT / RFU, OGT / Fold change vs veh, OGT / RFU, BRD1 / Fold change vs veh, BRD1 / RFU, MARS / Fold change vs veh, MARS / RFU, ZNF655 / Fold change vs veh, ZNF655 / RFU, FAHD1 / Fold change vs veh, FAHD1 / RFU, BDP1 / Fold change vs veh, BDP1 / RFU, LRRCC1 / Fold change vs veh, LRRCC1 / RFU, ARID1A / Fold change vs veh, ARID1A / RFU, ZNF146 / Fold change vs veh, ZNF146 / RFU, ZNF330 / Fold change vs veh, ZNF330 / RFU, GPN3 / Fold change vs veh, GPN3 / RFU, C9orf123 / Fold change vs veh, C9orf123 / RFU, N4BP2L2 / Fold change vs veh, N4BP2L2 / RFU, ARFIP1 / Fold change vs veh, ARFIP1 / RFU, FAM179B / Fold change vs veh, FAM179B / RFU, BCL10 / Fold change vs veh, BCL10 / RFU, UHRF1BP1L / Fold change vs veh, UHRF1BP1L / RFU, BET1 / Fold change vs veh, BET1 / RFU, CNOT2 / Fold change vs veh, CNOT2 / RFU, ZNF268 / Fold change vs veh, ZNF268 / Fold change vs veh, ZNF507 / RFU, DGCR2 / Fold change vs veh, DGCR2 / RFU, WDSUB1 / Fold change vs veh, WDSUB1 / Fold change vs veh, HSP90B1 /// MIR3652 / RFU, ADSS / Fold change vs veh, ADSS / RFU, GK / Fold change vs veh, GK / RFU, ZNF148 / Fold change vs veh, ZNF148 / RFU, TAF9 / Fold change vs veh, TAF9 / RFU, SLC1A5 / Fold change vs veh, SLC1A5 / RFU, SLMO2 / Fold change vs veh, SLMO2 / RFU, ABCC4 / Fold change vs veh, ABCC4 / RFU, LOC101060439 /// RAP1B / Fold change vs veh, LOC101060439 /// RAP1B / RFU, RFX7 / Fold change vs veh, RFX7 / RFU, GTPBP10 / Fold change vs veh, GTPBP10 / RFU, CNEP1R1 / Fold change vs veh, CNEP1R1 / RFU, BIVM-ERCC5 /// ERCC5 / Fold change vs veh, BIVM-ERCC5 /// ERCC5 / RFU, ILF3 / Fold change vs veh, ILF3 / RFU 11762660_at / Fold change /veh 11762660_at / RFU VCAN (11757783_s_at) / Fold change /veh VCAN (11757783_s_at) / RFU DDX43 (11728927_at) / Fold change /veh DDX43 (11728927_at) / RFU KRT8 (11758188_x_at) / Fold change /veh KRT8 (11758188_x_at) / RFU NKD1 (11759106_at) / Fold change /veh NKD1 (11759106_at) / RFU SRD5A1 (11742802_a_at) / Fold change /veh SRD5A1 (11742802_a_at) / RFU TPSAB1 /// TPSB2 (11721975_s_at) / Fold change /veh TPSAB1 /// TPSB2 (11721975_s_at) / RFU GSTM3 (11746129_a_at) / Fold change /veh GSTM3 (11746129_a_at) / RFU IL23R (11737362_x_at) / Fold change /veh IL23R (11737362_x_at) / RFU TMEM51 (11727254_a_at) / Fold change /veh TMEM51 (11727254_a_at) / RFU PIWIL2 (11732686_x_at) / Fold change /veh PIWIL2 (11732686_x_at) / RFU ORM1 (11744905_x_at) / Fold change /veh ORM1 (11744905_x_at) / RFU CCDC152 (11743942_at) / Fold change /veh CCDC152 (11743942_at) / RFU ECM1 (11717891_a_at) / Fold change /veh ECM1 (11717891_a_at) / RFU IL23R (11748794_a_at) / Fold change /veh IL23R (11748794_a_at) / RFU TNFAIP8L3 (11732012_x_at) / Fold change /veh TNFAIP8L3 (11732012_x_at) / RFU MBOAT4 (11741988_at) / Fold change /veh MBOAT4 (11741988_at) / RFU 11764193_at / Fold change /veh 11764193_at / RFU TMEM53 (11763286_at) / Fold change /veh TMEM53 (11763286_at) / RFU MAGEB2 (11727129_at) / Fold change /veh MAGEB2 (11727129_at) / RFU TMEM200A (11744735_a_at) / Fold change /veh TMEM200A (11744735_a_at) / RFU CCDC152 (11751479_a_at) / Fold change /veh CCDC152 (11751479_a_at) / RFU FAM211A (11726209_a_at) / Fold change /veh FAM211A (11726209_a_at) / RFU RGS16 (11746705_a_at) / Fold change /veh RGS16 (11746705_a_at) / RFU VCAN (11755009_s_at) / Fold change /veh VCAN (11755009_s_at) / RFU RHOB (11743442_s_at) / Fold change /veh RHOB (11743442_s_at) / RFU RGS16 (11720943_a_at) / Fold change /veh RGS16 (11720943_a_at) / RFU RGS16 (11720944_at) / Fold change /veh RGS16 (11720944_at) / RFU, VPS4B / Fold change vs veh, VPS4B / RFU, CREB1 / Fold change vs veh, CREB1 / RFU, DNAJC13 / Fold change vs veh, DNAJC13 / RFU, GNAQ / Fold change vs veh, GNAQ / RFU, CDK5R1 / Fold change vs veh, CDK5R1 / RFU, ZRANB3 / Fold change vs veh, ZRANB3 / RFU, CUL4A / Fold change vs veh, CUL4A / RFU, CCNY / Fold change vs veh, CCNY / RFU, UFL1 / Fold change vs veh, UFL1 / RFU, COG3 / Fold change vs veh, COG3 / RFU, DIAPH2 / Fold change vs veh, DIAPH2 / RFU, SKA2 / Fold change vs veh, SKA2 / RFU, AFF3 / Fold change vs veh, AFF3 / RFU, LMF1 / Fold change vs veh, LMF1 / RFU, IPO11 / Fold change vs veh, IPO11 / RFU, DFFB / Fold change vs veh, DFFB / RFU, FOXP1 / Fold change vs veh, FOXP1 / RFU, CARD8 / Fold change vs veh, CARD8 / RFU, STRN3 / Fold change vs veh, STRN3 / RFU, ADK / Fold change vs veh, ADK / RFU, RASSF2 / Fold change vs veh, RASSF2 / RFU, WIPF1 / Fold change vs veh, WIPF1 / RFU, LARP1B / Fold change vs veh, LARP1B / RFU, RASA1 / Fold change vs veh, RASA1 / RFU, RB1 / Fold change vs veh, RB1 / RFU, PPFIA1 / Fold change vs veh, PPFIA1 / RFU, MAT2A / Fold change vs veh, MAT2A / RFU, CCT5 / Fold change vs veh, CCT5 / RFU, WDR92 / Fold change vs veh, WDR92 / RFU, CUX1 / Fold change vs veh, CUX1 / RFU, TTC7A / Fold change vs veh, TTC7A / RFU, TMEM135 / Fold change vs veh, TMEM135 / RFU, DEPTOR / Fold change vs veh, DEPTOR / RFU, CPM / Fold change vs veh, CPM / RFU, DNAJB6 / Fold change vs veh, DNAJB6 / RFU, CACNA2D3 / Fold change vs veh, CACNA2D3 / RFU, DTX4 / Fold change vs veh, DTX4 / RFU, TFCP2 / Fold change vs veh, TFCP2 / RFU, GMCL1 /// GMCL1P1 / Fold change vs veh, GMCL1 /// GMCL1P1 / RFU, AEBP2 / Fold change vs veh, AEBP2 / RFU, SNHG1 /// SNORD22 /// SNORD25 /// SNORD26 /// SNORD27 /// SNORD28 /// SNORD29 /// SNORD31 / Fold change vs veh, SNHG1 /// SNORD22 /// SNORD25 /// SNORD26 /// SNORD27 /// SNORD28 /// SNORD29 /// SNORD31 / Fold change (Aza/veh), C12orf56 (ProbeSet 11735607_a_at) / Fold change (ACY-1035/veh), C12orf56 (ProbeSet 11735607_a_at) / Fold change (Aza/veh), FGFR1OP (ProbeSet 11751329_s_at) / Fold change (ACY-1035/veh), FGFR1OP (ProbeSet 11751329_s_at) / Fold change (Aza/veh), VPS36 (ProbeSet 11739960_a_at) / Fold change (ACY-1035/veh), VPS36 (ProbeSet 11739960_a_at) / RFU SYPL1 (11715823_x_at) / Fold change /veh SYPL1 (11715823_x_at) / RFU IGFBP7 (11715501_s_at) / Fold change /veh IGFBP7 (11715501_s_at) / RFU REEP3 (11722064_at) / Fold change /veh REEP3 (11722064_at) / RFU IGLL1 (11728026_x_at) / Fold change /veh IGLL1 (11728026_x_at): dose or concentration left out as unconfirmed
# Details: ProbeSet 11763166_a_at; LIST B
structure (smiles),measurement,value
Nc1ncn([C@@H]2O[C@H](CO)[C@@H](O)[C@H]2O)c(=O)n1 [azacitidine],"RFU, MARS",35.99 RFU
